Read-outs that look alike come from different tables or passages of the source.
Columns and labels:
[1] = biological target: T1, human VR1 receptors (Homo sapiens, UniProt Q8NER1); test: Human VR1 antagonist assay (Ca2+ imaging); assay type: cell-based; conditions: cells expressing human VR1, fura-2 Ca2+ imaging, FDSS 6000; capsaicin (300 nM) or acid (pH5.8) stimulation, table does not say which
T1 construct: host or cells: cells highly expressing human VR1; cell type not specified
Summary of the method: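 Human VR1-expressing cells loaded with 5 μM fura-2/AM for 1 h, resuspended at 3.75×10^5 cells/ml and preincubated 15 min at room temperature in the dark with compound. Stimulation by 300 nM capsaicin in KRH buffer pH 7.3, or by acid (HBSS/MES, final pH 5.8) from HBSS-HEPES pH 7.4; fluorescence (ex 340/380 nm, em 510-520 nm) monitored from 1 min before addition for 5 min.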

[2] = human, microsomes, pH 7.4
Description: (§1) Test compounds (1 μM) were incubated with 3.3 mM MgCl2 and 0.78 mg/mL HLM (HL101) in 100 mM potassium phosphate buffer (pH 7.4) at 37° C. on the 96-deep well plate. The reaction mixture was split into two groups, a non-P450 and a P450 group. NADPH was only added to the reaction mixture of the P450 group. An aliquot of samples of P450 group was collected at 0, 10, 30, and 60 min time point, where 0 min time point indicated the time when NADPH was added into the reaction mixture of P450 group. An aliquot of samples of non-P450 group was collected at −10 and 65 min time point. Collected aliquots were extracted with acetonitrile solution containing an internal standard. The precipitated protein was spun down in centrifuge (2000 rpm, 15 min). The compound concentration in supernatant was measured by LC/MS/MS system.
(§2) The half-life value was obtained by plotting the natural logarithm of the peak area ratio of compounds/internal standard versus time. The slope of the line of best fit through the points yields the rate of metabolism (k).

[3] = Half-life in Human Liver Microsomes (HLM); conditions: pH 7.4; for half-life at 1 μM: human, human liver microsomes (HL101)
Description: as §1, §2

T1 sequence (Q8NER1 whole entry): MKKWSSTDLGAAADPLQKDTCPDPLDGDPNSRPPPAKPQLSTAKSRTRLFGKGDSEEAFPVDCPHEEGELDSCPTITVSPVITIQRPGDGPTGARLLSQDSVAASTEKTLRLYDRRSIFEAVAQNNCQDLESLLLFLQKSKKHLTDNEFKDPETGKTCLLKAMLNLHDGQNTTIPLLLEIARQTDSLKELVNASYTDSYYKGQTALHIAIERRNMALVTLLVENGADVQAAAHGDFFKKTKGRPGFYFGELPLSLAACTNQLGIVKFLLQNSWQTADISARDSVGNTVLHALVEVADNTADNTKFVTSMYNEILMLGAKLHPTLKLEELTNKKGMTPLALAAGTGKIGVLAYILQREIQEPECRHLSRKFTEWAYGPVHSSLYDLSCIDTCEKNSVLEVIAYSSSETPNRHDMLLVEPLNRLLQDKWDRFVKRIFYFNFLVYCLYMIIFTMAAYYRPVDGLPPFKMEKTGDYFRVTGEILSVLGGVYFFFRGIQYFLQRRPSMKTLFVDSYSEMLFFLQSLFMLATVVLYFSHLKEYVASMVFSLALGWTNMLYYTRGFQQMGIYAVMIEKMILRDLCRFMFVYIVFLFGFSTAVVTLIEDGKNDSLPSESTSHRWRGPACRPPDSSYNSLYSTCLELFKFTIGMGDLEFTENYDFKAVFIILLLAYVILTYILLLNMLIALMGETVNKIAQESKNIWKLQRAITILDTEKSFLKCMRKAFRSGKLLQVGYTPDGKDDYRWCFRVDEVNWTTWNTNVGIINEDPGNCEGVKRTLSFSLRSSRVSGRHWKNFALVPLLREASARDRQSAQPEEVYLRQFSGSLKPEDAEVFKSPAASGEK

Row | Molecule | IC50 [1] [µM] | T1/2 [2] [min] | half-life at 1 μM [3] [min] | T1/2 ([3]; 1 μM compound, 0.78 mg/mL HLM, 37° C., NADPH) [min]
1 | Cc1cc([C@@H](C)NC(=O)C2CC2c2ccc(C(C)(C)C)cc2)ccc1NS(C)(=O)=O (stereo partly shown) [Example 7, 2-(4-tert-Butylphenyl)-N-((1 FR)-1-{3-methyl-4-[(methylsulfonyl)amino]phenyl}ethyl)cyclopropanecarboxamide] | 0.015 | 33 | – | –
2 | Cc1cc([C@@H](C)NC(=O)C2CC2(CO)c2ccc(C(C)(C)C)cc2)ccc1NS(C)(=O)=O (stereo partly drawn) [Example 59, 2-[4-tert-Butylphenyl]-2-(hydroxymethyl)-N-((1R)-1-{3-methyl-4-[(methylsulfonyl)amino]phenyl}ethyl)cyclopropanecarboxamide] | 0.263 | – | 22 | –
3 | C[C@@H](NC(=O)[C@H]1C[C@]1(C)c1ccc(C(F)(F)F)cc1)c1cc(F)c(NS(C)(=O)=O)cc1F [Example 60, (1S,2S)-N-((1R)-1-{2,5-Difluoro-4-[(methylsulfonyl)amino]phenyl}ethyl)-2-methyl-2-[4-(trifluoromethyl)phenyl]cyclopropanecarboxamide] | 0.0251 | – | > 120 | –
4 | C[C@@H](NC(=O)[C@H]1C[C@]1(C)c1ccc(C(F)(F)F)cc1)c1cc(F)c(NS(C)(=O)=O)c(F)c1 [Example 61, (1S,2S)-N-((1R)-1-{3,5-Difluoro-4-[(methylsulfonyl)amino]phenyl}ethyl)-2-methyl-2-[4-(trifluoromethyl)phenyl]cyclopropanecarboxamide] | 0.00317 | – | > 120 | –
5 | COC1(c2ccc(C(F)(F)F)cc2)CC1C(=O)N[C@H](C)c1ccc(NS(C)(=O)=O)c(C)c1 (stereo partly drawn) [Example 63, N-((1R)-1-{3-Methyl-4-[(methylsulfonyl)amino]phenyl}ethyl)-2-(methyloxy)-2-[4-(trifluoromethyl)phenyl]cyclopropanecarboxamide] | 0.00666 | – | 35.6 | –
6 | COC1(c2ccc(C(C)(C)C)cc2)CC1C(=O)N[C@H](C)c1ccc(NS(C)(=O)=O)c(C)c1 (stereo partly drawn) [Example 64, 2-[4-tert-Butylphenyl]-N-((1R)-1-{3-methyl-4-[(methylsulfonyl)amino]phenyl}ethyl)-2-(methyloxy)cyclopropanecarboxamide] | 0.00462 | – | 14 | –
7 | Cc1cc([C@@H](C)NC(=O)C2CC2(C)c2ccc(C(F)(F)F)c(F)c2)ccc1NS(C)(=O)=O (stereo partly drawn) [Example 66, 2-[3-Fluoro-4-(trifluoromethyl)phenyl]-2-methyl-N-((1R)-1-{3-methyl-4-[(methylsulfonyl)amino]phenyl}ethyl)cyclopropanecarboxamide] | 0.000421 | – | 34 | –
8 | C[C@@H](NC(=O)C1CC1(C)c1ccc(C(F)(F)F)c(F)c1)c1ccc(NS(C)(=O)=O)c(F)c1 (stereo partly drawn) [Example 67, N-((1R)-1-{3-Fluoro-4-[(methylsulfonyl)amino]phenyl}ethyl)-2-[3-fluoro-4-(trifluoromethyl)phenyl]-2-methylcyclopropanecarboxamide] | 0.00564 | – | 95 | –
9 | Cc1cc([C@@H](C)NC(=O)C2CC2c2ccc(C(C)(C)C)cc2CO)ccc1NS(C)(=O)=O (stereo partly drawn) [Example 68, 2-[4-tert-Butyl-2-(hydroxymethyl)phenyl]-N-((1R)-1-{3-methyl-4-[(methylsulfonyl)amino]phenyl}ethyl)cyclopropanecarboxamide] | 0.062 | – | 18 | –
10 | C[C@@H](NC(=O)C1CC1(C)c1ccc(S(=O)(=O)C(F)(F)F)cc1)c1ccc(NS(C)(=O)=O)c(CO)c1 (stereo partly drawn) [Example 69, N-((1R)-1-{3-(Hydroxymethyl)-4-[(methylsulfonyl)amino]phenyl}ethyl)-2-methyl-2-{4-[(trifluoromethyl)sulfonyl]phenyl}cyclopropanecarboxamide] | 0.212 | – | 30 | –
11 | Cc1cc([C@@H](C)NC(=O)[C@H]2C[C@]2(C)c2ccc(C(F)(F)F)cc2)ccc1NS(C)(=O)=O [Example 70, (1S,2S)-2-Methyl-N-((1R)-1-{3-methyl-4-[(methylsulfonyl)amino]phenyl}ethyl)-2-[4-(trifluoromethyl)phenyl]cyclopropanecarboxamide] | 0.00083 | – | – | 38
12 | C[C@@H](NC(=O)C1CC1(C)c1ccc(C(F)(F)F)c(F)c1)c1cc(F)c(NS(C)(=O)=O)c(F)c1 (stereo partly drawn) [Example 73, N-((1R)-1-{3,5-Difluoro-4-[(methylsulfonyl)amino]phenyl}ethyl)-2-[3-fluoro-4-(trifluoromethyl)phenyl]-2-methylcyclooropanecarboxamide] | 0.00076 | >120 | – | –
13 | C[C@@H](NC(=O)[C@@H]1C[C@@]1(C)c1ccc(C(F)(F)F)c(F)c1)c1cc(F)c(NS(C)(=O)=O)c(F)c1 [Example 74, N-((1R)-1-{3,5-Difluoro-4-[(methylsulfonyl)amino]phenyl}ethyl)-2-[3-fluoro-4-(trifluoromethyl)phenyl]-2-methylcyclopropanecarboxamide] | 0.021 | – | > 120 | –
14 | CC[C@@H](NC(=O)[C@H]1C[C@@H]1c1cc(F)c(C(C)(C)C)c(F)c1)c1ccc(NS(C)(=O)=O)c(C)c1 [Example 76, 2-(4-tert-Butyl-3,5-difluorophenyl)-N-((1R)-1-{3-methyl-4-[(methylsulfonyl)amino]phenyl}propyl)cyclopropanecarboxamide] | 0.0263 | – | 33 | –
15 | Cc1cc([C@@H](C)NC(=O)[C@H]2C[C@@H]2c2ccc(C(F)(F)F)nc2N(C)C)c(F)cc1NS(C)(=O)=O [Example 79, 2-[2-(Dimethylamino)-6-(trifluoromethyl)pyridin-3-yl]-N-((1R)-1-{2-fluoro-5-methyl-4-[(methylsulfonyl)amino]phenyl}ethyl)cyclopropanecarboxamide] | 0.0205 | – | 22 | –
16 | Cc1cc([C@@H](C)NC(=O)[C@H]2C[C@]2(C)c2ccc(C(F)(F)F)nc2N2CCOCC2)ccc1NS(C)(=O)=O [Example 84, 2-Methyl-N-((1R)-1-{3-methyl-4-[(methylsulfonyl)amino]phenyl}ethyl)-2-[2-morpholin-4-yl-6-(trifluoromethyl)pyridin-3-yl]cyclopropanecarboxamide] | 0.0245 | – | 3 | –
17 | N-((1R)-1-{3,5-Difluoro-4-[(methylsulfonyl)amino]phenyl}ethyl)-2-[3,5-difluoro-4-(2,2,2-trifluoro-1-dimethylethyl)phenyl]-2-methylcyclopropanecarboxamide [Example 80] | 0.00301 | 117 | – | –

Reference: patent publication US7915448B2, “Substituted sulfonylaminoarylmethyl cyclopropanecarboxamide as VR1 receptor antagonists” (Pfizer Inc., priority 2005, dated 2011)
